Measurements published in US20230392180A1, “MICROSCOPIC IMAGING AND ANALYSES OF EPIGENETIC LANDSCAPE” (Sanford Burnham Prebys Medical Discovery Institute, priority 2020, published 2023).
Structures can show the parent of a compound that is named as a salt.

Experiments:
[1] = tested on: primary human fNPCs; experiment: MIEL-EpiTox of ToxCast Phase I/II+elk library compounds; conditions: 10 μM, 72 h, H3K27ac and H3K27me3
Experimental: Cells were treated with test compounds, then fixed and immunolabeled for epigenetic marks. The pattern of marks within each nucleus was analyzed to create multivariate signatures or “fingerprints” of each perturbation. Since the technique analyzes texture features rather than intensities and morphologies, culturing and immunostaining artifacts are reduced. MIEL is related to “cell painting”, in which multivariate analysis of multiplexed biomarkers was used to classify protein localization, cell subpopulations, and drug mechanisms of action. The multiparametric signatures of the cells (centroids) were plotted in 2D via multidimensional scaling (MDS), and support vector machine (SVM) classification was used to establish borders to divide the epigenetic signatures into distinct classes. MIEL was employed to probe the presence of epitoxic compounds in the EPA ToxCast Phase I/II+elk library and examined the effects of 352 compounds on primary human fNPCs (Thermo-Fisher, #A15654). Cells were incubated with 10 μM compound for 72 h, labeled with fluorescence-tagged antibodies to H3K27ac and H3K27me3, and imaged on a Vala Sciences IC200 cytometer. Features were derived using Acapella (Perkin Elmer) high-content imaging and analysis software. SVM classification was conducted as previously described. […] The same criteria were applied to determine toxicity.

[2] = Exposure estimated from publicly available information; conditions: women, estimating 50-75 kg body weight
[3] = single report; cited from earlier work
[4] = cited from earlier work
[5] = tested on: GBM2 cells; experiment: Sensitization to radiation or TMZ; type: cell-based, human; conditions: 200 uM, 4 days
Experimental: Sensitization to radiation or TMZ: Cells were plated at 1500 cells/well in 384-well optical bottom assay plates (PerkinElmer). Two sets of the experiment were prepared; DMSO (0.1%) was used for negative controls at 48 DMSO replicates per plate; 3 replicates (wells) were treated per compound. Cells in both sets were pre-treated with epigenetic compounds for 2 days prior to cytotoxic treatment. Cytotoxic treatment, either 200 uM temozolomide (TMZ, Sigma) or 1 Gy x-ray radiation (RS2000; RAD Source) was carried out for 4 days on single set (‘treatment set’); for TMZ treatment, DMSO control was given to the second set. A single radiation dose was given at day 3; TMZ was given twice at days 3 and 5 of the experiment. Cells were fixed, stained with DAPI, and scored using an automated microscope (Celigo; Nexcelom Bioscience). For each compound, fold change in cell number was calculated for both the “treatment set” (Drug+Cytotox) and the “control set” (Drug), compared to DMSO-treated wells in the control set. The effect of radiation or TMZ alone was calculated as fold reduction of DMSO-treated wells in the treatment set compared to DMSO-treated wells in the control set (Cytotox). The coefficient of drug interaction (CDI) was calculated as […]. […]

Question: Which “MIEL-EpiTox class (epitoxic, cytotoxic, inert)” value [1] does the source give for `CCCCOC(=O)COc1ccc(Cl)cc1Cl` [2,4-D 1-butyl ester] here?
Answer: Its value is “epitoxic hits producing the largest epigenetic perturbations”.

Question: Which “estimated concentrations reached following repeated administration” value [2] does the source give for `C[C@@H]1C[C@H]2[C@@H]3CCC4=CC(=O)C=C[C@]4(C)[C@@]3(F)[C@@H](O)C[C@]2(C)[C@@]1(O)C(=O)COS(=O)(=O)O` [dexamethasone sulfate] here?
Answer: Its value is roughly 10 µM.

Question: With `Cc1sc2c(c1C)C(c1ccc(Cl)cc1)=N[C@@H](CC(=O)Nc1ccc(O)cc1)c1nnc(C)n1-2` [OTX015] as the molecule, how does the “interaction with TMZ” value [3] read?
Answer: Its value is “synergy”.

Question: What about the “toxicity in clinical trials” value ([4]; doses achieving biologically active levels) of the same molecule?
Answer: The value was “low toxicity”.

Question: And the clinical benefits ([4]; in vivo)?
Answer: The clinical benefits was “no detectable clinical benefits”.

Question: Which “reduction in cell numbers” value [5] does the source give for `Cn1nnc2c(C(N)=O)ncn2c1=O` [TMZ, temozolomide] here?
Answer: Its value is 50%.
